Measurements as given in ChEMBL document CHEMBL3046079, “Synthesis, herbicidal activity, and mode of action of IR 5790” (J Agric Food Chem, 2001).
The source made the active and inactive calls. No cut-off for these calls is given here.

What was measured:
[1] = tested on: Calystegia sepium; test: Pre-emergence herbicidal activity against Calystegia sepium assessed as injury at 50 g/ha applied at 24 hr post-sowing measured after 28 days relative to control; assay type: functional
[2] = tested on: Galium aparine; test: Post-emergence herbicidal activity against Galium aparine assessed as injury at 50 g/ha applied at 15 days post-sowing measured after 15 days relative to control; assay type: functional
[3] = tested on: Solanum nigrum; test: Post-emergence herbicidal activity against Solanum nigrum (black nightshade) assessed as injury at 5 g/ha applied at 15 days post-sowing measured after 15 days relative to control; assay type: functional
[4] = tested on: Oryza sativa; test: Phytotoxicity against Oryza sativa (rice) assessed as injury at 50 g/ha applied as pre-emergent treatment at 24 hr post-sowing measured after 28 days relative to control; assay type: organism-based; settings: in vivo, other, 672 h
[5] = tested on: Portulaca oleracea; test: Post-emergence herbicidal activity against Portulaca oleracea assessed as injury at 5 g/ha applied at 15 days post-sowing measured after 15 days relative to control; assay type: functional
[6] = tested on: Alopecurus myosuroides; test: Post-emergence herbicidal activity against Alopecurus myosuroides assessed as injury at 5 g/ha applied at 15 days post-sowing measured after 15 days relative to control; assay type: functional
[7] = tested on: Veronica persica; test: Post-emergence herbicidal activity against Veronica persica assessed as injury at 150 g/ha applied at 15 days post-sowing measured after 15 days relative to control; assay type: functional
[8] = tested on: Papaver rhoeas; test: Pre-emergence herbicidal activity against Papaver rhoeas assessed as injury at 50 g/ha applied at 24 hr post-sowing measured after 28 days relative to control; assay type: functional
[9] = tested on: Sida spinosa; test: Post-emergence herbicidal activity against Sida spinosa assessed as injury at 50 g/ha applied at 15 days post-sowing measured after 15 days relative to control; assay type: functional
[10] = tested on: Capsella bursa-pastoris; test: Pre-emergence herbicidal activity against Capsella bursa-pastoris assessed as injury at 50 g/ha applied at 24 hr post-sowing measured after 28 days relative to control; assay type: functional
[11] = target: T1, Putative protoporphyrinogen IX oxidase (Cucumis sativus) (UniProt C6L817); test: Inhibition of protoporphyrin oxidase in Cucumis sativus (cucumber) cotyledon disc assessed as light-dependent membrane damage at 100 uM incubated for 20 hr in dark followed by 8 hr in presence of light measured as electrolyte leakage relative to control
T1 sequence (whole entry): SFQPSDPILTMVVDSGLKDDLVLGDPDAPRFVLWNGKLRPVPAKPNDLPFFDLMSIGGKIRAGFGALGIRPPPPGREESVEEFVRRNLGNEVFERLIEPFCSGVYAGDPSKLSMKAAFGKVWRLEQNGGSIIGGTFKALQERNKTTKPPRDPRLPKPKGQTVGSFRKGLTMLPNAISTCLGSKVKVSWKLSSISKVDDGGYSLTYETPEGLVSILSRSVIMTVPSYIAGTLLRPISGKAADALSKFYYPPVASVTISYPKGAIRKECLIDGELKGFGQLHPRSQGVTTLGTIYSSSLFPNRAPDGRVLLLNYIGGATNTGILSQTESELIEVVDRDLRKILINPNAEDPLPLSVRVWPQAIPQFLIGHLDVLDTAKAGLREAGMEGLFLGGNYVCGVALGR

[12] = tested on: Beta vulgaris; test: Phytotoxicity against Beta vulgaris assessed as injury at 150 g/ha applied as post-emergent treatment at 15 days post-sowing measured after 15 days relative to control; assay type: organism-based; settings: in vivo, other, 360 h
[13] = tested on: Papaver rhoeas; test: Post-emergence herbicidal activity against Papaver rhoeas assessed as injury at 50 g/ha applied at 15 days post-sowing measured after 15 days relative to control; assay type: functional
[14] = tested on: Ammi majus; test: Post-emergence herbicidal activity against Amni maius assessed as injury at 15 g/ha applied at 15 days post-sowing measured after 15 days relative to control; assay type: functional
[15] = tested on: Echinochloa crus-galli; test: Post-emergence herbicidal activity against Echinochloa crus-galli (barnyard grass) assessed as injury at 50 g/ha applied at 15 days post-sowing measured after 15 days relative to control; assay type: functional
[16] = tested on: Avena fatua; test: Post-emergence herbicidal activity against Avena fatua assessed as injury at 50 g/ha applied at 15 days post-sowing measured after 15 days relative to control; assay type: functional
[17] = target: T1, Putative protoporphyrinogen IX oxidase (Cucumis sativus); test: Inhibition of protoporphyrin oxidase in Cucumis sativus (cucumber) cotyledon disc assessed as increase in extraplastidic protoporphyrin 9 accumulation at 10 uM incubated in dim light for 2 hr by HPLC analysis relative to control
[18] = tested on: Amaranthus retroflexus; test: Post-emergence herbicidal activity against Amaranthus retroflexus assessed as injury at 150 g/ha applied at 15 days post-sowing measured after 15 days relative to control; assay type: functional
[19] = tested on: Stellaria media; test: Post-emergence herbicidal activity against Stellaria media assessed as injury at 50 g/ha applied at 15 days post-sowing measured after 15 days relative to control; assay type: functional
[20] = tested on: Xanthium strumarium; test: Pre-emergence herbicidal activity against Xanthium strumarium (cocklebur) assessed as injury at 150 g/ha applied at 24 hr post-sowing measured after 28 days relative to control; assay type: functional
[21] = target: T1, Putative protoporphyrinogen IX oxidase (Cucumis sativus); test: Inhibition of protoporphyrin oxidase in Cucumis sativus (cucumber) cotyledon disc assessed as light-dependent membrane damage at 10 uM incubated for 20 hr in dark followed by 8 hr in presence of light measured as electrolyte leakage relative to control
[22] = tested on: Ipomoea purpurea; test: Post-emergence herbicidal activity against Ipomoea purpurea (common morning-glory) assessed as injury at 5 g/ha applied at 15 days post-sowing measured after 15 days relative to control; assay type: functional
[23] = tested on: Persicaria maculosa; test: Post-emergence herbicidal activity against Persicaria maculosa assessed as injury at 5 g/ha applied at 15 days post-sowing measured after 15 days relative to control; assay type: functional
[24] = tested on: Phalaris arundinacea; test: Post-emergence herbicidal activity against Phalaris arundinacea assessed as injury at 150 g/ha applied at 15 days post-sowing measured after 15 days relative to control; assay type: functional
[25] = tested on: Abutilon theophrasti; test: Pre-emergence herbicidal activity against Abutilon theophrasti (velvetleaf) assessed as injury at 50 g/ha applied at 24 hr post-sowing measured after 28 days relative to control; assay type: functional
[26] = tested on: Portulaca oleracea; test: Post-emergence herbicidal activity against Portulaca oleracea assessed as injury at 150 g/ha applied at 15 days post-sowing measured after 15 days relative to control; assay type: functional
[27] = tested on: Setaria viridis; test: Post-emergence herbicidal activity against Setaria viridis (green foxtail) assessed as injury at 50 g/ha applied at 15 days post-sowing measured after 15 days relative to control; assay type: functional
[28] = tested on: Solanum nigrum; test: Post-emergence herbicidal activity against Solanum nigrum (black nightshade) assessed as injury at 50 g/ha applied at 15 days post-sowing measured after 15 days relative to control; assay type: functional
[29] = tested on: Setaria viridis; test: Pre-emergence herbicidal activity against Setaria viridis (green foxtail) assessed as injury at 50 g/ha applied at 24 hr post-sowing measured after 28 days relative to control; assay type: functional
[30] = tested on: Persicaria maculosa; test: Pre-emergence herbicidal activity against Persicaria maculosa assessed as injury at 150 g/ha applied at 24 hr post-sowing measured after 28 days relative to control; assay type: functional
[31] = tested on: Abutilon theophrasti; test: Post-emergence herbicidal activity against Abutilon theophrasti (velvetleaf) assessed as injury at 50 g/ha applied at 15 days post-sowing measured after 15 days relative to control; assay type: functional
[32] = tested on: Triticum aestivum; test: Phytotoxicity against Triticum aestivum (wheat) assessed as injury at 5 g/ha applied as post-emergent treatment at 15 days post-sowing measured after 15 days relative to control; assay type: organism-based; settings: in vivo, other, 360 h

`C#CCOc1cc(-n2nc(C(C)(C)C)sc2=O)c(Cl)cc1Cl` showed an Activity [1] of 0%, an Activity [2] of 30% and an Activity [3] of 0%. The Activity [4] was 0%, the Activity [5] was 50% and the Activity [6] was 0%. For the same molecule, the Activity [7] was 50%, the Activity [8] was 70% and the Activity [9] was 50%. The Activity [10] was 70%, the inhibition [11] was 90% and the Activity [12] was 90%. For the same molecule, the Activity [13] was 0%, the Activity [14] was 0% and the Activity [15] was 0%. The Activity [16] was 0%, the fold change (FC) [17] was 234 and the Activity [18] was 90%. The Activity [19] was 0%, the Activity [20] was 0% and the inhibition [21] was “Active”. It also gave an Activity [22] of 50%, an Activity [23] of 30% and an Activity [24] of 30%. The Activity [25] was 0%, the Activity [26] was 90% and the Activity [27] was 10%. For the same molecule, the Activity [28] was 90%, the Activity [29] was 30% and the Activity [30] was 50%. The Activity [31] was 70% and the Activity [32] was 0%.
